# Tests used:
# [1] = Water solubility by HPLC, amorphous vs crystalline ivermectin; assay type: physicochemical; details: for peak on the HPLC chromatogram (water solubility): LOD of the HPLC method
# From the text: This confirms that the amorphous form is more water soluble than the known crystalline form.
# [2] = Solid-state stability of the amorphous form on storage (XRPD); assay type: physicochemical
# From the text: By stable we mean that the amorphous form is maintained after a certain period of time under certain environmental conditions. We have data confirming that the product maintains its amorphous form at room temperature for at least 3.5 months.
# X-ray diffraction (XRPD) analysis was made with PANalytical Empyrean equipped with copper tube and PIXel1D-Medpix3 detector (Malvern Panalytical, UK).
Substance,water solubility relative to the crystalline form [1],peak on the HPLC chromatogram (water solubility) ([1]; listed as amorphous form),"amorphous character after storage (XRPD, FIG. 7) ([2]; 3 months in the freezer followed by 3.5 months at room temperature (25° C.))",time for which the product maintains its amorphous form ([2]; room temperature),peak on the HPLC chromatogram (water solubility) [1]
ivermectin [amorphous ivermectin],higher than its corresponding crystalline form,"small, but visible peak",amorphous character is maintained,at least 3.5 months,
"ivermectin [known crystalline form, reference compound]",,,,,no visible peak

# Reference: patent publication US20210023111A1, “Novel Form of Invermectin and a Process for Making it” (Hovione Scientia Limited, priority 2018, published 2021)
